Results taken from ChEMBL document CHEMBL5331122, “Structure-Activity Relationship Study of Antimicrobial Peptide PE2 Delivered Novel Linear Derivatives with Potential of Eradicating Biofilms and Low Incidence of Drug Resistance” (J Med Chem, 2023).
Activity calls are given as the source filed them. The rule behind the calls is not given here.

What was measured:
[1] = Hemolytic activity in mouse red blood cells assessed as hemolysis at 256 microg/ml incubated for 1 hr relative to control; type: toxicity, cell-based, Erythrocyte; details: red blood cells (erythrocytes), at 256 µg/mL, read-out: Activity
[2] = test system: Escherichia coli; assay: Synergistic antibacterial activity against Escherichia coli ATCC 25922 assessed as fractional inhibitory concentration index incubated for 18 hrs in presence of rifampicin by checkerboard assay; type: functional
[3] = test system: Escherichia coli; assay: Synergistic antibacterial activity against Escherichia coli ATCC 25922 assessed as fractional inhibitory concentration index incubated for 18 hrs in presence of gentamycin by checkerboard assay; type: functional
[4] = test system: Escherichia coli; assay: Synergistic antibacterial activity against Escherichia coli ATCC 25922 assessed as fractional inhibitory concentration index incubated for 18 hrs in presence of PMB by checkerboard assay; type: functional
[5] = test system: Escherichia coli; assay: Bactericidal activity against Escherichia coli ATCC 25922 assessed as inhibition of bacterial growth at 0.5 to 2 times MIC measured at 120 mins by time-kill assay; type: functional, organism-based
[6] = test system: Staphylococcus aureus; assay: Bactericidal activity against Staphylococcus aureus ATCC 25923 assessed as inhibition of bacterial growth at 0.5 to 2 times MIC measured at 180 mins by time-kill assay; type: functional, organism-based
[7] = test system: Staphylococcus aureus; assay: Bactericidal activity against Staphylococcus aureus ATCC 25923 assessed as inhibition of bacterial growth at 2 times MIC measured at 120 mins by time-kill assay; type: functional, organism-based
[8] = Acute toxicity in Kunming mouse assessed as survival rate at 20 to 60 mg/kg, ip measured after 4 hrs; type: organism-based; details: in vivo, dose 20-60 mg/kg
[9] = test system: Escherichia coli; assay: Bactericidal activity against Escherichia coli ATCC 25922 assessed as inhibition of bacterial growth at 0.5 to 2 times MIC measured at 90 mins by time-kill assay; type: functional, organism-based
[10] = test system: Escherichia coli; assay: Bactericidal activity against Escherichia coli ATCC 25922 assessed as inhibition of bacterial growth at 1 times MIC measured at 120 mins by time-kill assay; type: functional, organism-based
[11] = test system: Staphylococcus aureus; assay: Bactericidal activity against Staphylococcus aureus ATCC 25923 assessed as inhibition of bacterial growth at 0.5 to 2 times MIC measured at 120 mins by time-kill assay; type: functional, organism-based
[12] = test system: Staphylococcus aureus; assay: Bactericidal activity against Staphylococcus aureus ATCC 25923 assessed as inhibition of bacterial growth at 2 times MIC measured at 60 mins by time-kill assay; type: functional, organism-based
[13] = test system: Staphylococcus aureus; assay: Antimicrobial activity against methicillin-resistant Staphylococcus aureus 48 assessed as inhibition of microbial growth incubated for 18 hrs by broth microdilution analysis; type: functional, organism-based; details: Staphylococcus aureus, 48, 18 h
[14] = test system: Staphylococcus aureus; assay: Antimicrobial activity against methicillin-resistant Staphylococcus aureus 52 assessed as inhibition of microbial growth incubated for 18 hrs by broth microdilution analysis; type: functional, organism-based; details: Staphylococcus aureus, 52, 18 h
[15] = test system: Staphylococcus aureus; assay: Antimicrobial activity against methicillin-resistant Staphylococcus aureus 54 assessed as inhibition of microbial growth incubated for 18 hrs by broth microdilution analysis; type: functional, organism-based; details: Staphylococcus aureus, 54, 18 h
[16] = test system: Staphylococcus aureus; assay: Antimicrobial activity against methicillin-resistant Staphylococcus aureus 74 assessed as inhibition of microbial growth incubated for 18 hrs by broth microdilution analysis; type: functional, organism-based; details: Staphylococcus aureus, 74, 18 h
[17] = test system: Staphylococcus aureus; assay: Antimicrobial activity against methicillin-resistant Staphylococcus aureus 936 assessed as inhibition of microbial growth incubated for 18 hrs by broth microdilution analysis; type: functional, organism-based; details: Staphylococcus aureus, 936, 18 h
[18] = test system: Escherichia coli; assay: Antimicrobial activity against Escherichia coli 780 assessed as inhibition of microbial growth incubated for 18 hrs by broth microdilution analysis; type: functional, organism-based; details: Escherichia coli, 780, 18 h
[19] = test system: Escherichia coli; assay: Antimicrobial activity against Escherichia coli 804 assessed as inhibition of microbial growth incubated for 18 hrs by broth microdilution analysis; type: functional, organism-based; details: Escherichia coli, 804, 18 h
[20] = test system: Escherichia coli; assay: Antimicrobial activity against Escherichia coli 850 assessed as inhibition of microbial growth incubated for 18 hrs by broth microdilution analysis; type: functional, organism-based; details: Escherichia coli, 850, 18 h
[21] = test system: Pseudomonas aeruginosa; assay: Antimicrobial activity against Pseudomonas aeruginosa 86 assessed as inhibition of microbial growth incubated for 18 hrs by broth microdilution analysis; type: functional, organism-based; details: Pseudomonas aeruginosa, 86, 18 h
[22] = test system: Pseudomonas aeruginosa; assay: Antimicrobial activity against Pseudomonas aeruginosa 119 assessed as inhibition of microbial growth incubated for 18 hrs by broth microdilution analysis; type: functional, organism-based; details: Pseudomonas aeruginosa, 119, 18 h
[23] = test system: Pseudomonas aeruginosa; assay: Antimicrobial activity against Pseudomonas aeruginosa 124 assessed as inhibition of microbial growth incubated for 18 hrs by broth microdilution analysis; type: functional, organism-based; details: Pseudomonas aeruginosa, 124, 18 h
[24] = Hemolytic activity in mouse red blood cells assessed as hemolysis at 128 microg/ml incubated for 1 hr relative to control; type: toxicity, cell-based, Erythrocyte; details: red blood cells (erythrocytes), read-out: Activity
[25] = test system: Staphylococcus aureus; assay: Bactericidal activity against Staphylococcus aureus ATCC 25923 assessed as inhibition of bacterial growth at 2 times MIC measured upto 360 mins by time-kill assay; type: functional, organism-based
[26] = test system: Staphylococcus aureus; assay: Bactericidal activity against Staphylococcus aureus ATCC 25923 assessed as inhibition of bacterial growth at 2 times MIC measured at 30 mins by time-kill assay; type: functional, organism-based
[27] = test system: Escherichia coli; assay: Antimicrobial activity against Escherichia coli ATCC 25922 assessed as reduction in microbial growth measured for 18 hrs in presence of […] microg/ml LPS; type: functional, organism-based
[28] = test system: Klebsiella pneumoniae; assay: Antibacterial activity against Klebsiella pneumoniae ATCC 700603 infected in BALB/c mouse pneumonia model assessed as reduction in infiltration of inflammatory cells at 10 mg/kg, ip measured at 4 to 12 hrs by hematoxylin and eosin staining based analysis; type: functional, organism-based; details: time 4-12 hrs
[29] = test system: Klebsiella pneumoniae; assay: Antibacterial activity against Klebsiella pneumoniae ATCC 700603 infected in BALB/c mouse pneumonia model assessed as alveolar expansion at 10 mg/kg, ip measured at 4 to 12 hrs by hematoxylin and eosin staining based analysis; type: functional, organism-based; details: time 4-12 hrs
[30] = Acute toxicity in Kunming mouse assessed as survival rate at 20 to 80 mg/kg, ip measured after 4 hrs; type: organism-based; details: in vivo, dose 20-80 mg/kg

**Q.** For `CCCCCCC(=O)N[C@@H](CCN)C(=O)N[C@H](C(=O)N[C@@H](CCN)C(=O)N[C@H](Cc1ccccc1)C(=O)N[C@@H](CC(C)C)C(=O)N[C@@H](CCN)C(=O)N[C@@H](C(=O)N[C@@H](CC(C)C)C(=O)N[C@@H](Cc1ccc(O)cc1)C(N)=O)C(C)C)[C@@H](C)CC`, which hemolysis at 1 h, 256 µg/mL [1] is on record?
**A.** < 10%

**Q.** And the “fractional inhibitory concentration index (FICI)” value [2]?
**A.** 0.312

**Q.** What about the “fractional inhibitory concentration index (FICI)” value [3] of the same molecule?
**A.** 0.5

**Q.** And the “fractional inhibitory concentration index (FICI)” value [4]?
**A.** 0.312

**Q.** What about the Activity [5] of the same molecule?
**A.** Active

**Q.** What about the Activity [6] of the same molecule?
**A.** Active

**Q.** And the Activity [7]?
**A.** Active

**Q.** And the Activity [8]?
**A.** Toxic

**Q.** Which Activity [9] does the source give for `CC[C@H](C)[C@@H]1NC(=O)[C@H](CCN)NC(=O)C[C@@H](C(C)C)OC(=O)[C@H]([C@@H](C)O)NC(=O)[C@H](CC(C)C)NC(=O)[C@@H](C(C)C)NC(=O)[C@H](CCN)NC(=O)[C@H](CC(C)C)NC(=O)[C@@H](Cc2ccccc2)NC(=O)[C@H](CCN)NC1=O` here?
**A.** Active

**Q.** And the Activity [10]?
**A.** Active

**Q.** What about the Activity [11] of the same molecule?
**A.** Active

**Q.** And the Activity [12]?
**A.** Active

**Q.** With `CCCCCCCC(=O)N[C@@H](CCN)C(=O)N[C@H](C(=O)N[C@@H](CCN)C(=O)N[C@H](Cc1ccccc1)C(=O)N[C@@H](CC(C)C)C(=O)N[C@@H](CCN)C(=O)N[C@@H](C(=O)N[C@@H](CC(C)C)C(=O)N[C@@H](Cc1ccc(O)cc1)C(N)=O)C(C)C)[C@@H](C)CC` as the molecule, how does the EC50 [13] read?
**A.** 5.48 µg/mL

**Q.** And the EC50 [14]?
**A.** 4.46 µg/mL

**Q.** And the EC50 [15]?
**A.** 4.33 µg/mL

**Q.** And the EC50 [16]?
**A.** 5.1 µg/mL

**Q.** And the EC50 [17]?
**A.** 6.12 µg/mL

**Q.** What about the EC50 [18] of the same molecule?
**A.** 2.55 µg/mL

**Q.** And the EC50 [19]?
**A.** 2.36 µg/mL

**Q.** What about the EC50 [20] of the same molecule?
**A.** 2.42 µg/mL

**Q.** What about the EC50 [21] of the same molecule?
**A.** 2.08 µg/mL

**Q.** And the EC50 [22]?
**A.** 2.31 µg/mL

**Q.** What about the EC50 [23] of the same molecule?
**A.** 2.76 µg/mL

**Q.** What about the hemolysis at 1 h, 128 µg/mL [24] of the same molecule?
**A.** 10%

**Q.** And the Activity [5]?
**A.** Active

**Q.** And the Activity [11]?
**A.** Active

**Q.** And the Activity [25]?
**A.** Active

**Q.** And the Activity [26]?
**A.** Active

**Q.** And the Activity [27]?
**A.** Active

**Q.** And the Activity [28]?
**A.** Active

**Q.** And the Activity [29]?
**A.** Active

**Q.** And the Activity [30]?
**A.** Toxic
